Data set [1] addresses T1, α1b (hamster receptor expressed in mouse fibroblasts) (Mesocricetus auratus, UniProt P18841).
T1 construct: expressed in transfected cells; host or cells: mouse fibroblasts
T1 sequence (P18841 1-515): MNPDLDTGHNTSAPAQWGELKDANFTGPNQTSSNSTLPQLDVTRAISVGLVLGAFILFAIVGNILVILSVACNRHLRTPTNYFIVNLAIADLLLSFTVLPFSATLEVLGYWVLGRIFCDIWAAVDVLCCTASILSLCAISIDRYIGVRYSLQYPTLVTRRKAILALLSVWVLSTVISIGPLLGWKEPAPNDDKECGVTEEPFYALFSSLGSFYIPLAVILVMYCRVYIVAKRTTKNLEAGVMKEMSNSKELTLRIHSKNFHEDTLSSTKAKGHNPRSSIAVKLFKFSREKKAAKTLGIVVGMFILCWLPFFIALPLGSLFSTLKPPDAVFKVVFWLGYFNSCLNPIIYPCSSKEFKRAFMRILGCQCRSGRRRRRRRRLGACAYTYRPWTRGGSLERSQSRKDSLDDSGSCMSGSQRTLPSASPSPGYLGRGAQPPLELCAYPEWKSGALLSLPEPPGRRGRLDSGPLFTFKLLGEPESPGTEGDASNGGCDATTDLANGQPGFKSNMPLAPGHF
Briefly: Radioligand binding with [3H]-prazosin, α1b. In short, it runs like this: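 Radioligand binding with [3H]-prazosin: α1A from rat submaxillary gland; α1b hamster receptor and α1d rat receptor, each expressed in mouse fibroblasts.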

Where [2] appears, read: hamster receptor expressed in mouse fibroblasts, [3H]-prazosin, read-out: Radioligand Binding Ki α1b (Hamster).

For orientation: Ki means a measure of affinity in units of concentration, obtained from inhibition or displacement. The melting point is the temperature, or range, at which the solid turns liquid.

Each structure is given as a SMILES string. Structures can show the parent of a compound that is named as a salt. Where two headings read alike, the source gives them in different places.

With `CCS(=O)(=O)Nc1cccc2c1CCCC2c1c[nH]cn1.O=C(O)/C=C\C(=O)O` (single isomer, unassigned; (+)) [Example 33, (+)-N-[5-(1H-imidazol-4-yl)-5,6,7,8-tetrahydro-1-naphthalenyl]ethanesulfonamide, maleate], the Ki in data set [1] (setting [2]) was found to be 1300 nM.

For the molecule `CCS(=O)(=O)Nc1cccc2c1CCCC2c1c[nH]cn1.O=C(O)/C=C\C(=O)O` (stereo not drawn) [Example 12, N-[5-(1H-imidazol-4-yl)-5,6,7,8-tetrahydro-1-naphthalenyl]ethanesulfonamide, maleate], in data set [1] (setting [2]), the Ki is 6980 nM.

`CS(=O)(=O)Nc1cccc(Cc2c[nH]cn2)c1.O=C(O)/C=C\C(=O)O` [Example 21, N-[3-(1H-imidazol-4-ylmethyl)phenyl]methanesulfonamide, maleate] displayed a melting point of 142 to 144 °C. Also, affinity in data set [1] was put at a Ki of 1270 nM.

Turning to `CCS(=O)(=O)Nc1cccc(Cc2c[nH]cn2)c1C.O=C(O)/C=C\C(=O)O` [Example 29, N-[3-(1H-imidazol-4-ylmethyl)-2-methylphenyl]ethanesulfonamide, maleate], in data set [1], the affinity, expressed as Ki, was 3880 nM.

In data set [1], `C=C(c1cccc(NS(=O)(=O)CC)c1)c1c[nH]cn1` [Example 45, N-{3-[1-(1H-imidazol-4-yl)vinyl]phenyly}ethanesulfonamide, maleate] yielded a Ki of 1730 nM.

These data come from patent US6503935B1, “Imidazoles and related compounds as α1A agonists” (Abbott Laboratories, priority 1998, dated 2003).
